From patent publication US5026703A, “Peptide oxytocin antagonists” (priority 1990, dated 1991)
pIC50: −log10 of the molar value. Structures can show the parent of a compound that is named as a salt. Where two headings read alike, the source gives them in different places. *1 amine or outer side, *2 acyl side, *3 side chain or, on linkers, in order; H or OH if unused. Where a SMILES comes first, the peptide text is derived from it. [ ]: non-standard residue; d: D form. X12 = C=CCSC(=N[C@H](C(=O)[*:2])[C@@H](C)CC)[C@@H](Cc1ccccc1)N[*:1]; X13 = CC[C@H](C)[C@H](NC(=S)[C@@H](Cc1ccccc1)N[*:1])C(=O)[*:2]; X11 = CC(C)(C)OC(=O)CSC1=NN([*:1])[C@H](C(=O)[*:2])CC1; X2 = O=C([C@@H]1[C@@H](O)[C@@H](O)C=NN1[*:1])[*:2]; X10 = O=C1CC[C@@H](C(=O)[*:2])N([*:1])N1; Piz(1,6-dehydro) = O=C(O)[C@@H]1CCC=NN1; X7 = CSC1=NN([*:1])[C@H](C(=O)[*:2])CC1; dPiz(1,6-dehydro) = O=C(O)[C@H]1CCC=NN1; X16 = CN1CCC[C@@H](C(=O)[*:2])N1[*:1]; X15 = CN1CCC[C@H](C(=O)[*:2])N1[*:1]; X9 = O=C([C@@H]1C=CC=NN1[*:1])[*:2]; dNMeCha = CN[C@H](CC1CCCCC1)C(=O)O; X5 = O=C([C@@H]1CCCNN1[*:1])[*:2]; X1 = O=C([C@H]1CCCNN1[*:1])[*:2]; dNMeF = CN[C@H](Cc1ccccc1)C(=O)O; dCha = N[C@H](CC1CCCCC1)C(=O)O

Assays:
AVP-V2 sites = AVP-V2 sites (Rattus norvegicus, UniProt Q00788); assay: [3H]AVP radioligand binding to rat kidney medulla crude membrane preparation (AVP-V2 sites); settings: rat kidney medulla membranes; 2 nM [3H]AVP; 30 min at 30° C.; read-out: Receptor Binding Results IC50 (nM) [^3 H]-AVP-V2
Procedure: (§1) Nonspecific binding (5-10% of the total binding) was determined using 10 μM unlabeled AVP, and the binding reaction was terminated by filtration as described above for the [^3 H]OT binding assay.
(§2) +Butlen, D; Guillon, G; Rajerison, RM; Jard, S; Sawyer, WH; Manning, M. 1978 Mol Pharmacol 14:1006.

uterine OT receptors = molecular target: T1, uterine OT receptors (Rattus norvegicus, UniProt P70536); assay: [3H]OT radioligand binding to uterine OT receptors, crude membrane preparation; settings: for IC50: uteri of DES-treated rats, 1 nM [3H]OT, 60 min, 22° C., inhibits specific binding by 50%, read-out: Receptor Binding Results IC50 (nM) [3H]OT
T1 construct: from tissue; host or cells: uterus of DES-treated rats, crude membranes
T1 sequence (P70536 1-388): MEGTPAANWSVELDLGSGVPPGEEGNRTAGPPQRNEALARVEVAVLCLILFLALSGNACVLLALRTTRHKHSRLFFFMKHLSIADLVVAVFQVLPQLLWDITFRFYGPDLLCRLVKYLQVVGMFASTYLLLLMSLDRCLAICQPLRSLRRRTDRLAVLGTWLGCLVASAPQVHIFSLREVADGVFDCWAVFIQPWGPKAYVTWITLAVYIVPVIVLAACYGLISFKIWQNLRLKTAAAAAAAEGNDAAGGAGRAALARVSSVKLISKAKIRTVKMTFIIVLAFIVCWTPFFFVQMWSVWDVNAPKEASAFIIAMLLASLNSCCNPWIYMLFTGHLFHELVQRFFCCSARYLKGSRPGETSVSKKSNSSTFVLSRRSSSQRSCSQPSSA
Procedure: The high affinity binding of [^3 H]OT ([tyrosyl, 3,5-[^3 H]OT; 30-60 Ci/mmol; New England Nuclear Boston, Mass.) to uterine OT receptors was based on an assay* using a crude membrane preparation of uteri taken from diethylstilbestrol dipropionate (DES)-treated (0.3 mg/kg, ip; 18-24) rats. Competition studies were conducted at equilibrium (60 min; 22° C.) using 1 nM [^3 H]OT in the following assay buffer: 50 mM Tris-HCl, 5 mM MgCl2, and 0.1% BSA, pH 7.4. Nonspecific binding (10% of the total binding) was determined using 1 μM unlabeled OT and the binding reaction was terminated by filtration through glass fiber filters using a cell harvester (model 7019, Skatron, Inc., Sterling, Va.).
*Fuchs, A-R; Fuchs, F; Soloff, MS. 1985 J. Clin. Endocrinol. Metab. 60:37.

AVP-V1 sites = AVP-V1 sites (Rattus norvegicus, UniProt P30560); assay: [3H]AVP radioligand binding to male rat liver crude membrane preparation (AVP-V1 sites); settings: for IC50: male rat liver membranes, 1 nM [3H]AVP, 30 min at 30° C., read-out: Receptor Binding Results IC50 (nM) [^3 H]-AVP-V1
Procedure: as §1, §2

Sequence of AVP-V2 sites (Q00788 whole entry): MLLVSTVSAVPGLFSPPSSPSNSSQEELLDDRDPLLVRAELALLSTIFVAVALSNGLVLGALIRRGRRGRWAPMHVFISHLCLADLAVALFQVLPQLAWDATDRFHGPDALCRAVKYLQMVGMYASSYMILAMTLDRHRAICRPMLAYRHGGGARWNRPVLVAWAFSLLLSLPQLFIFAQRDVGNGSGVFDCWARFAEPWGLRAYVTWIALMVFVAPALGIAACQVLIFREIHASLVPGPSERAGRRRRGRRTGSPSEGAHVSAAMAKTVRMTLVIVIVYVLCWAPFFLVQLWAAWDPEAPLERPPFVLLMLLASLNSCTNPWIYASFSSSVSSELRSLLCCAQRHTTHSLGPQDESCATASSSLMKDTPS
Sequence of AVP-V1 sites (P30560 whole entry): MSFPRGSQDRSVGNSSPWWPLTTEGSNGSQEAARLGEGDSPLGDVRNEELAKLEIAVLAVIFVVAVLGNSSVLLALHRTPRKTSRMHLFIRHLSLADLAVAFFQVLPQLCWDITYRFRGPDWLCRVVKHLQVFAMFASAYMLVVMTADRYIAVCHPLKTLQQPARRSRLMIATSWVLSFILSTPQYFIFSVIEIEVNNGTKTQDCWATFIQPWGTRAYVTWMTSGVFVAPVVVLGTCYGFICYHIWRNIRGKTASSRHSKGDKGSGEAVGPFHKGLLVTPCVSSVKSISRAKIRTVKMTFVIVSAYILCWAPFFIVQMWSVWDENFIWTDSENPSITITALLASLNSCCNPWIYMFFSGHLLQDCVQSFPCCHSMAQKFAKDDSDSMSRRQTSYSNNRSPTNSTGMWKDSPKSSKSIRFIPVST

Row | Compound | IC50 (AVP-V2 sites) | IC50 (uterine OT receptors) | IC50 (AVP-V1 sites) | pIC50 (uterine OT receptors) | pIC50 (AVP-V1 sites)
1 | CC[C@H](C)[C@@H]1NC(=O)[C@@H](CC2CCCCC2)NC(=O)[C@@H]2CCCN2C(=O)[C@@H](CC2CCCCC2)N(C)C(=O)[C@@H]2CCCNN2C(=O)[C@H]2CCCNN2C1=O [Example 1, cyclo-[D-3-Cyclohexylalanyl-L-isoleucyl-D-hexahydro-3-pyridazinecarbonyl-L-hexahydro-3-pyridazinecarbonyl-3-cyclohexyl-N-methyl-D-alanyl-L-prolyl]] (cyclo(I[X1][X5][dNMeCha]P[dCha])) | 14800 nM | 725 nM | 2400 nM | – | –
2 | CC[C@H](C)[C@@H]1NC(=O)[C@@H](CC2CCCCC2)NC(=O)[C@@H]2CCCN2C(=O)[C@@H](CC2CCCCC2)N(C)C(=O)[C@@H]2CCC=NN2C(=O)[C@H]2CCC=NN2C1=O [Example 2, cyclo-[D-3-Cyclohexylalanyl-L-isoleucyl-D-2,3,4,5-tetrahydro-3-pyidazinecarbonyl-L-2,3,4,5-tetrahydro-3-pyridazinecarbonyl-3-cyclohexyl-N-methyl-D-alanyl-L-prolyl]] (cyclo(I[dPiz(1,6-dehydro)][Piz(1,6-dehydro)][dNMeCha]P[dCha])) | – | 94 nM | – | – | –
3 | CC[C@H](C)[C@@H]1NC(=O)[C@@H](Cc2ccccc2)NC(=O)[C@@H]2CCCN2C(=O)[C@@H](Cc2ccccc2)N(C)C(=O)[C@@H]2CCC(=O)NN2C(=O)[C@H]2CCC=NN2C1=O [Example 3, cyclo-[D-Phenylalanyl-L-isoleucyl-D-2,3,4,5-tetrahydro-3-pyridazinecarbonyl-L-hexahydro-6-oxo-3-pyridazinecarbonyl-N-methyl-D-phenylalanyl-L-prolyl]] (cyclo(I[dPiz(1,6-dehydro)][X10][dNMeF]P[dF])) | 17000 nM | 20 nM | 4700 nM | – | –
4 | CC[C@H](C)[C@@H]1NC(=O)[C@@H](Cc2ccccc2)NC(=O)[C@@H]2CCCN2C(=O)[C@@H](Cc2ccccc2)N(C)C(=O)[C@@H]2CCC(=O)NN2C(=O)[C@H]2CCCNN2C1=O [Example 4, cyclo-[D-Phenylalanyl-L-isoleucyl-D-hexahydro-3-pyridazinecarbonyl-L-hexahydro-6-oxo-3-pyridazinecarbonyl-N-methyl-D-phenylalanyl-L-prolyl]] (cyclo(I[X1][X10][dNMeF]P[dF])) | 18900 nM | – | 13900 nM | 6.66 | –
5 | CC[C@H](C)[C@@H]1NC(=O)[C@@H](Cc2ccccc2)NC(=O)[C@@H]2CCCN2C(=O)[C@@H](Cc2ccccc2)N(C)C(=O)[C@@H]2CCC(SC)=NN2C(=O)[C@H]2CCC=NN2C1=O [Example 5, cyclo-[D-Phenylalanyl-L-isoleucyl-D-2,3,4,5-tetrahydro-3-pyidazinecarbonyl-L-2,3,4,5-tetrahydro-6-methylthio-3-pyridazinecarbonyl-N-methyl-D-phenylalanyl-L-prolyl]] (cyclo(I[dPiz(1,6-dehydro)][X7][dNMeF]P[dF])) | 1020 nM | 27 nM | 820 nM | – | –
6 | CC[C@H](C)[C@@H]1NC(=O)[C@@H](Cc2ccccc2)NC(=O)[C@@H]2CCCN2C(=O)[C@@H](Cc2ccccc2)N(C)C(=O)[C@@H]2CCCN(C)N2C(=O)[C@H]2CCCN(C)N2C1=O [Example 6, cyclo-[D-Phenylalanyl-L-isoleucyl-D-hexahydro-1-methyl-3-pyridazinecarbonyl-L-hexahydro-1-methyl-3-pyridazinecarbonyl-N-methyl-D-phenylalanyl-L-prolyl]] (cyclo(I[X15][X16][dNMeF]P[dF])) | – | – | – | 5.20 | –
7 | CC[C@H](C)[C@@H]1NC[C@@H](Cc2ccccc2)NC(=O)[C@@H]2CCCN2C(=O)[C@@H](Cc2ccccc2)N(C)C(=O)[C@@H]2CCC=NN2C(=O)[C@H]2CCC=NN2C1=O [Example 7, cyclo-[N-(2-Amino-3-phenylpropyl)-L-isoleucyl-D-2,3,4,5-tetrahydro-3-pyridazinecarbonyl-L-2,3,4,5-tetrahydro-3-pyridazinecarbonyl-N-methyl-D-phenylalanyl-L-prolyl]] | > 30000 nM | 30000 nM | > 30000 nM | – | –
8 | CC[C@H](C)[C@@H]1NC(=O)[C@@H](Cc2ccccc2)NC(=O)[C@@H]2CCCN2C(=O)[C@@H](Cc2ccccc2)N(C)C(=O)[C@@H]2C=CC=NN2C(=O)[C@H]2CCC=NN2C1=O [Example 8, cyclo-[D-Phenylalanyl-L-isoleucyl-D-2,3,4,5-tetrahydro-3-pyridazinecarbonyl-L-2,3-dihydro-3-pyridazine-carbonyl-N-methyl-D-phenylalanyl-L-prolyl]] (cyclo(I[dPiz(1,6-dehydro)][X9][dNMeF]P[dF])) | 1350 nM | 20 nM | 1410 nM | – | –
9 | CC[C@H](C)[C@@H]1NC(=O)[C@@H](Cc2ccccc2)NC(=O)[C@@H]2CCCN2C(=O)[C@@H](Cc2ccccc2)N(C)C(=O)[C@@H]2CCC(SCC(=O)OC(C)(C)C)=NN2C(=O)[C@H]2CCC=NN2C1=O [Example 9, cyclo-[D-Phenylalanyl-L-isoleucyl-D-2,3,4,5-tetrahydro-3-pyridazinecarbonyl-6-[[2-(1,1-dimethylethoxy)-2-oxoethyl]thio]-L-2,3,4,5-tetrahydro-3-pyridazine-carbonyl-N-methyl-D-phenylalanyl-L-prolyl]] (cyclo(I[dPiz(1,6-dehydro)][X11][dNMeF]P[dF])) | 10000 nM | 564 nM | – | – | 5.00
10 | CC[C@H](C)[C@@H]1NC(=S)[C@@H](Cc2ccccc2)NC(=O)[C@@H]2CCCN2C(=O)[C@@H](Cc2ccccc2)N(C)C(=O)[C@@H]2CCC=NN2C(=O)[C@H]2CCC=NN2C1=O [Example 10, cyclo-[D-Thiophenylalanyl-L-isoleucyl-D-2,3,4,5-tetrahydro-3-pyridazinecarbonyl-L-2,3,4,5-tetrahydro-3-pyridazinecarbonyl-N-methyl-D-phenylalanyl-L-prolyl]] (cyclo(P[X13][dPiz(1,6-dehydro)][Piz(1,6-dehydro)][dNMeF])) | 270 nM | 1 nM | 300 nM | – | –
11 | CC[C@H](C)[C@@H]1NC(=S)[C@@H](Cc2ccccc2)NC(=S)[C@@H]2CCCN2C(=O)[C@@H](Cc2ccccc2)N(C)C(=O)[C@@H]2CCC=NN2C(=O)[C@H]2CCC=NN2C1=O [Example 11, cyclo-[D-Thiophenylalanyl-L-isoleucyl-D-2,3,4,5-tetrahydro-3-pyridazinecarbonyl-L-2,3,4,5-tetrahydro-3-pyridazinecarbonyl-N-methyl-D-phenylalanyl-L-thioprolyl]] | 430 nM | 4.9 nM | 200 nM | – | –
12 | C=CCSC1=N[C@@H]([C@@H](C)CC)C(=O)N2N=CCC[C@@H]2C(=O)N2N=CCC[C@H]2C(=O)N(C)[C@H](Cc2ccccc2)C(=O)N2CCC[C@H]2C(=O)N[C@@H]1Cc1ccccc1 [Example 12, cyclo-[(R)-N-(2-amino-3-phenyl-1-(2-propenylthio)-propylidene)-L-isoleucyl-D-2,3,4,5-tetrahydro-3-pyridazinecarbonyl-L-2,3,4,5-tetrahydro-3-pyridazine-carbonyl-N-methyl-D-phenylalanyl-L-prolyl]] (cyclo(P[X12][dPiz(1,6-dehydro)][Piz(1,6-dehydro)][dNMeF])) | > 10000 nM | 710 nM | > 10000 nM | – | –
13 | CC[C@H](C)[C@@H]1NC(=O)[C@@H](Cc2ccccc2)NC(=O)[C@@H]2CCCN2C(=O)[C@@H](Cc2ccccc2)N(C)C(=O)[C@@H]2[C@@H](O)[C@@H](O)C=NN2C(=O)[C@H]2CCC=NN2C1=O [Example 13, cyclo-[D-Phenylalanyl-L-isoleucyl-D-2,3,4,5-tetrahydro-3-pyridazinecarbonyl-(3α,4β,5β)-4,5-dihydroxy-L-2,3,4,5-tetrahydro-3-pyridazinecarbonyl-N-methyl-D-phenylalanyl-L-prolyl]] (cyclo(I[dPiz(1,6-dehydro)][X2][dNMeF]P[dF])) | > 10000 nM | 785 nM | 10000 nM | – | –
14 | CC[C@H](C)[C@@H]1NC(=O)[C@@H](Cc2ccccc2)NC(=O)[C@@H]2CCCN2C(=O)[C@@H](Cc2ccccc2)N(C)C(=O)[C@@H]2[C@@H](O)[C@@H](O)C=NN2C(=O)[C@H]2CCCNN2C1=O [Example 14, cyclo-[D-Phenylalanyl-L-isoleucyl-D-hexahydro-3-pyridazinecarbonyl-(3α,4β,5β)-4,5-dihydroxy-L-2,3,4,5-tetrahydro-3-pyridazinecarbonyl-N-methyl-D-phenylalanyl-L-prolyl]trifluoroacetate salt.] (cyclo(I[X1][X2][dNMeF]P[dF])) | > 10000 nM | 290 nM | 10000 nM | – | –
